{"source": "ChEMBL document CHEMBL4422633", "about": "“Antioxidant-Inspired Drug Discovery: Antitumor Metabolite Is Formed in Situ from a Hydroxycinnamic Acid Derivative upon Free-Radical Scavenging” (J Med Chem, 2019)", "key": {"NCI-H661 [1]": {"test_system": "NCI-H661", "assay": "Cytotoxicity against human NCI-H661 cells assessed as reduction in cell viability after 72 hrs by MTT assay", "assay_type": "functional, cell-based", "details": "NCI-H661, 72 h"}, "NCI-H460 [2]": {"test_system": "NCI-H460", "assay": "Induction of ROS generation in human NCI-H460 cells assessed as increase DHE positive cells at 10 uM after 24 hrs by DHE-staining based flow cytometry", "assay_type": "functional, cell-based"}, "SiHa": {"test_system": "SiHa", "assay": "Cytotoxicity against human SiHa cells assessed as reduction in cell viability after 72 hrs by MTT assay", "assay_type": "functional, cell-based"}, "NCI-H661 [3]": {"test_system": "NCI-H661", "assay": "Induction of apoptosis in human NCI-H661 cells assessed as necrotic cells at 10 uM after 24 hrs by Annexin V/propidium iodide-staining based flow cytometry (reference value: 2.58 +/- 0.05%)", "assay_type": "functional"}, "[4]": {"assay": "Induction of apoptosis in human HaCaT cells assessed as viable cells at 10 uM after 24 hrs by Annexin V/propidium iodide-staining based flow cytometry (reference value: 95.63 +/- 3.83%)", "assay_type": "cell-based", "details": "read-out: Activity"}, "HaCaT [5]": {"test_system": "HaCaT", "assay": "Induction of apoptosis in human HaCaT cells assessed as late apoptotic cells at 10 uM after 24 hrs by Annexin V/propidium iodide-staining based flow cytometry (reference value: 2.26 +/- 0.09%)", "assay_type": "cell-based"}, "NCI-H460 [6]": {"test_system": "NCI-H460", "assay": "Cytotoxicity against human NCI-H460 cells assessed as reduction in cell viability after 72 hrs by MTT assay", "assay_type": "functional, cell-based", "details": "NCI-H460, 72 h"}, "NCI-H460 [7]": {"test_system": "NCI-H460", "assay": "Induction of apoptosis in human NCI-H460 cells assessed as late apoptotic cells at 10 uM after 24 hrs by Annexin V/propidium iodide-staining based flow cytometry (reference value: 0.93 +/- 0.04%)", "assay_type": "functional"}, "[8]": {"biological_target": "Serine/threonine-protein kinase Chk2 (Homo sapiens) (UniProt O96017)", "sequence (O96017 whole entry)": "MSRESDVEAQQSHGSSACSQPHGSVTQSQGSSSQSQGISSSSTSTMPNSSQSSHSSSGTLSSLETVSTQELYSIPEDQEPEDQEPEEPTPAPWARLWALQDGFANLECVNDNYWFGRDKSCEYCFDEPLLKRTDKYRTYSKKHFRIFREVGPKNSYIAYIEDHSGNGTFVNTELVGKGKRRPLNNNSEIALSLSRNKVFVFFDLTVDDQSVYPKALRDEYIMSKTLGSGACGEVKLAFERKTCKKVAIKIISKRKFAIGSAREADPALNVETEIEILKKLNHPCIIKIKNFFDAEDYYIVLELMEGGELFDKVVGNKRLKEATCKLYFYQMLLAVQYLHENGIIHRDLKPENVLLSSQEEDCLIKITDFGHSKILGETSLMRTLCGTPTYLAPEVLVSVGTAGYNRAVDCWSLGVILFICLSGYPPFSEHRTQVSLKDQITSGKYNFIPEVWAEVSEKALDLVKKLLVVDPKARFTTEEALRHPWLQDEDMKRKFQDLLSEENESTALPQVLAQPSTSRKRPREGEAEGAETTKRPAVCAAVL", "assay": "Induction of CHK2 phosphorylation at T68 in human MCF7 cells at 10 uM pretreated for 30 mins followed by 10 J/m'2 irradiation and measured after 1 hr by Western blot analysis", "assay_type": "cell-based"}, "A549 [9]": {"test_system": "A549", "assay": "Induction of DNA damage response in human A549 cells assessed as increase in H2AX expression at 10 uM after 24 hrs by alexa fluor 488-staining based flow cytometry", "assay_type": "functional, cell-based"}, "NCI-H661 [10]": {"test_system": "NCI-H661", "assay": "Induction of apoptosis in human NCI-H661 cells assessed as late apoptotic cells at 10 uM after 24 hrs by Annexin V/propidium iodide-staining based flow cytometry (reference value: 0.95 +/- 0.03%)", "assay_type": "functional"}, "[11]": {"assay": "Drug level using p-coumaric acid methyl ester assessed as compound formation by reverse phase-HPLC and HPLC-MS analysis based Fenton reaction assay", "assay_type": "physicochemical"}, "HeLa": {"test_system": "HeLa", "assay": "Cytotoxicity against human HeLa cells assessed as reduction in cell viability after 72 hrs by MTT assay", "assay_type": "functional, cell-based"}, "A549 [12]": {"test_system": "A549", "assay": "Induction of apoptosis in human A549 cells assessed as late apoptotic cells at 10 uM after 24 hrs by Annexin V/propidium iodide-staining based flow cytometry (reference value: 1.54 +/- 0.03%)", "assay_type": "functional"}, "NCI-H460 [13]": {"test_system": "NCI-H460", "assay": "Induction of apoptosis in human NCI-H460 cells assessed as necrotic cells at 10 uM after 24 hrs by Annexin V/propidium iodide-staining based flow cytometry (reference value: 2.13 +/- 0.02%)", "assay_type": "functional"}, "A549 [14]": {"test_system": "A549", "assay": "Cytotoxicity against human A549 cells assessed as reduction in cell viability after 72 hrs by MTT assay", "assay_type": "functional, cell-based", "details": "A549, 72 h"}, "[15]": {"assay": "Cytotoxicity against mouse L5178B1 cells transfected with pHa MDR1/A retrovirus assessed as reduction in cell viability after 72 hrs by MTT assay", "assay_type": "functional, cell-based", "details": "MDR1, 72 h"}, "A549 [16]": {"test_system": "A549", "assay": "Induction of ROS generation in human A549 cells assessed as increase DHE positive cells at 10 uM after 24 hrs by DHE-staining based flow cytometry", "assay_type": "functional, cell-based"}, "HaCaT [17]": {"test_system": "HaCaT", "assay": "Cytotoxicity against human HaCaT cells assessed as reduction in cell viability after 72 hrs by MTT assay", "assay_type": "cell-based"}, "A549 [18]": {"test_system": "A549", "assay": "Induction of apoptosis in human A549 cells assessed as necrotic cells at 10 uM after 24 hrs by Annexin V/propidium iodide-staining based flow cytometry (reference value: 1.52 +/- 0.05%)", "assay_type": "functional"}, "Homo sapiens [19]": {"species": "Homo sapiens", "assay": "Induction of DNA damage response in human NCI-H460/R cells transfected with MDR assessed as increase in H2AX expression at 10 uM after 24 hrs by alexa fluor 488-staining based flow cytometry", "assay_type": "functional, cell-based"}, "Homo sapiens [20]": {"species": "Homo sapiens", "assay": "Induction of ROS generation in human NCI-H460/R cells transfected with MDR assessed as increase DHE positive cells at 10 uM after 24 hrs by DHE-staining based flow cytometry", "assay_type": "functional, cell-based"}, "NCI-H460 [21]": {"test_system": "NCI-H460", "assay": "Induction of apoptosis in human NCI-H460 cells assessed as early apoptotic cells at 10 uM after 24 hrs by Annexin V/propidium iodide-staining based flow cytometry (reference value: 0.45 +/- 0.01%)", "assay_type": "functional"}, "[22]": {"assay": "Cytotoxicity against human NCI-H460/R cells transfected with MDR assessed as reduction in cell viability after 72 hrs by MTT assay", "assay_type": "functional, cell-based", "details": "NCI-H460, 72 h"}, "[23]": {"assay": "Induction of apoptosis in human NCI-H460/R cells transfected with MDR assessed as viable cells at 10 uM after 24 hrs by Annexin V/propidium iodide-staining based flow cytometry (reference value: 95.76 +/- 2.87%)", "assay_type": "functional", "details": "NCI-H460, 24 h, read-out: Activity"}, "NCI-H460 [24]": {"test_system": "NCI-H460", "assay": "Induction of DNA damage response in human NCI-H460 cells assessed as increase in H2AX expression at 10 uM after 24 hrs by alexa fluor 488-staining based flow cytometry", "assay_type": "functional, cell-based"}, "[25]": {"assay": "Induction of apoptosis in human NCI-H460/R cells transfected with MDR assessed as late apoptotic cells at 10 uM after 24 hrs by Annexin V/propidium iodide-staining based flow cytometry (reference value: 0.84 +/- 0.01%)", "assay_type": "functional"}, "[26]": {"assay": "Induction of apoptosis in human NCI-H460/R cells transfected with MDR assessed as early apoptotic cells at 10 uM after 24 hrs by Annexin V/propidium iodide-staining based flow cytometry (reference value: 0.22 +/- 0.01%)", "assay_type": "functional"}, "NCI-H661 [27]": {"test_system": "NCI-H661", "assay": "Induction of DNA damage response in human NCI-H661 cells assessed as increase in H2AX expression at 10 uM after 24 hrs by alexa fluor 488-staining based flow cytometry", "assay_type": "functional, cell-based"}, "NCI-H661 [28]": {"test_system": "NCI-H661", "assay": "Induction of ROS generation in human NCI-H661 cells assessed as increase DHE positive cells at 10 uM after 24 hrs by DHE-staining based flow cytometry", "assay_type": "functional, cell-based"}, "HaCaT [29]": {"test_system": "HaCaT", "assay": "Induction of apoptosis in human HaCaT cells assessed as necrotic cells at 10 uM after 24 hrs by Annexin V/propidium iodide-staining based flow cytometry (reference value: 1.88 +/- 0.02%)", "assay_type": "cell-based"}, "A549 [30]": {"test_system": "A549", "assay": "Induction of apoptosis in human A549 cells assessed as viable cells at 10 uM after 24 hrs by Annexin V/propidium iodide-staining based flow cytometry (reference value: 96.45 +/- 2.89%)", "assay_type": "functional", "details": "A549, 24 h, read-out: Activity"}, "NCI-H460 [31]": {"test_system": "NCI-H460", "assay": "Induction of DNA damage response in human NCI-H460 cells transfected with MDR assessed as increase in H2AX expression at 10 uM after 24 hrs by alexa fluor 488-staining based flow cytometry", "assay_type": "functional, cell-based"}, "MCF7": {"test_system": "MCF7", "assay": "Cytotoxicity against human MCF7 cells assessed as reduction in cell viability after 72 hrs by MTT assay", "assay_type": "functional, cell-based", "details": "MCF7, 72 h"}}, "note": "pIC50: −log10 of the molar value. The source made the active and inactive calls. No cut-off for these calls is given here.", "data": [{"smiles": "COC(=O)/C=C/C1(O)C=CC(=O)C=C1", "values": [{"measurement": "pIC50", "setting": "NCI-H661 [1]", "value": 5.84}, {"measurement": "Activity", "setting": "NCI-H460 [2]", "value": "Active"}, {"measurement": "pIC50", "setting": "SiHa", "value": 5.05}, {"measurement": "Activity", "setting": "NCI-H661 [3]", "value": 44.82, "unit": "%"}, {"measurement": "viability at 24 h, 10 µM", "setting": "[4]", "value": 91.5, "unit": "%"}, {"measurement": "Activity", "setting": "HaCaT [5]", "value": 2.85, "unit": "%"}, {"measurement": "pIC50", "setting": "NCI-H460 [6]", "value": 5.73}, {"measurement": "Activity", "setting": "NCI-H460 [7]", "value": 3.35, "unit": "%"}, {"measurement": "Activity", "setting": "[8]", "value": "Active"}, {"measurement": "Activity", "setting": "A549 [9]", "value": "Active"}, {"measurement": "Activity", "setting": "NCI-H661 [10]", "value": 9.57, "unit": "%"}, {"measurement": "Drug uptake", "setting": "[11]", "value": "Active"}, {"measurement": "pIC50", "setting": "HeLa", "value": 5.01}, {"measurement": "Activity", "setting": "A549 [12]", "value": 3.93, "unit": "%"}, {"measurement": "Activity", "setting": "NCI-H460 [13]", "value": 7.31, "unit": "%"}, {"measurement": "pIC50", "setting": "A549 [14]", "value": 5.36}, {"measurement": "pIC50", "setting": "[15]", "value": 6.21}, {"measurement": "Activity", "setting": "A549 [16]", "value": "Active"}, {"measurement": "pIC50", "setting": "HaCaT [17]", "value": 5.39}, {"measurement": "Activity", "setting": "A549 [18]", "value": 2.57, "unit": "%"}, {"measurement": "Activity", "setting": "Homo sapiens [19]", "value": "Active"}, {"measurement": "Activity", "setting": "Homo sapiens [20]", "value": "inactive"}, {"measurement": "Activity", "setting": "NCI-H460 [21]", "value": 0.21, "unit": "%"}, {"measurement": "pIC50", "setting": "[22]", "value": 5.69}, {"measurement": "viability at 10 µM", "setting": "[23]", "value": 90, "unit": "%"}, {"measurement": "Activity", "setting": "NCI-H460 [24]", "value": "Active"}, {"measurement": "Activity", "setting": "[25]", "value": 2.34, "unit": "%"}, {"measurement": "Activity", "setting": "[26]", "value": 0.12, "unit": "%"}, {"measurement": "Activity", "setting": "NCI-H661 [27]", "value": "Active"}, {"measurement": "Activity", "setting": "NCI-H661 [28]", "value": "Active"}, {"measurement": "Activity", "setting": "HaCaT [29]", "value": 5.21, "unit": "%"}, {"measurement": "viability at 10 µM", "setting": "A549 [30]", "value": 92.8, "unit": "%"}, {"measurement": "Activity", "setting": "NCI-H460 [31]", "value": "Active"}, {"measurement": "pIC50", "setting": "MCF7", "value": 5.21}]}]}
